This passage reports TGI and GI50 results from PubChem BioAssay (NCI).

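Grown in 96-well plates, cells were treated for 48 hours with each compound at five concentrations. Insufficient inhibition: endpoint recorded as highest concentration tested. GI50: concentration for 50% inhibition of growth. TGI: concentration producing complete growth inhibition.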 A value given as a limit tells only on which side of the number the result lay.

The subject of one assay is MOLT-4 leukemia. Kind of assay: inhibition of tumour cell growth, NCI panel, 48 h.
With `CC(=O)Nc1nc(C#N)[nH]c1C#N`, the TGI is above 100 µM.
Compound `CS(=O)c1ncc2c(n1)-c1ccccc1OC2` (configuration not stated) displayed a TGI above 100 µM.
`CN(C)c1ccc(C(=N/N=C2\C(=O)Nc3ccccc32)c2ccc(N(C)C)cc2)cc1` had a TGI of 52.7 µM.
On the same count and under the same terms, next, `CCCC(=O)OC1CC(n2cc(F)c(=O)[nH]c2=O)OC1COP(=O)(OCC(Cl)(Cl)Cl)OCC(Cl)(Cl)Cl` (configuration not stated): above 62.1 µM; `CC1=C[C@@H]2Cc3nc4cc(Cl)ccc4c(N)c3[C@H](C1)C2`: 11.6 µM; `O=[N+]([O-])C(/C=C(\Cl)n1nnc2ccccc21)=C(/Cl)n1nnc2ccccc21`: above 100 µM.
The compound `CSC(=S)N(C)C` showed a TGI above 100 µM.
The compound `COc1ccc2c(C)cc(=O)oc2c1OC` displayed a TGI above 100 µM.
Turning to `CN(C)c1ccc(S(=O)Nc2ccccc2)cc1` (configuration not stated), the TGI was above 100 µM.
Still for that read-out and setting: next, `C=CCSc1nnc2cc(CN3CCCC3)c(-c3ccc(Cl)cc3)nn12`: above 100 µM; `Cc1cn(C2CC(O)C(CO)O2)c(=O)[nH]c1=O` (configuration not stated): 4090 µM; `CSC(=S)N/N=C(\C)c1ccc(S(=O)(=O)N(C)c2ccccc2)cc1`: above 100 µM.
Still for that read-out and setting: next, `CCNC(=O)Cc1nc2c(N)ncnc2n1C1OC(CO)C(O)C1O` (configuration not stated): above 100 µM.
The same measure, in the same setting: next, `Cc1nc(N)c(N2CCN([N+](=O)[O-])CC2)c(=O)[nH]1`: above 100 µM; `N#CC12C(=O)N=C(N)C1(C#N)C(c1ccco1)NC1=C2CCCC1` (configuration not stated): above 100 µM.
Compound `CCN(CC)CCN(C(=Nc1ccccc1)N1CCOCC1)c1ccccc1` displayed a TGI above 100 µM.

The test system of another assay is OVCAR-5 ovarian. Kind of assay: inhibition of tumour cell growth, NCI panel, 48 h.
Compound `CC1(C)CCCC2OC2CCC(C)(C)C1=O` (configuration not stated) had a TGI above 100 µM.
Consider `O=C1NCC2(CCN(CCCC3(c4ccc(F)cc4)OCCO3)CC2)N1c1ccccc1`, for which the TGI is above 100 µM.
The same measure, in the same setting: the figure for `COc1ccc2c(c1)/C(=C\c1c(Cl)nc3sc(C)cn13)C(=O)N2` is 25.4 µM.
Compound `O=C1c2ccccc2-c2c1c(-c1ccc(F)cc1)nc1ccc3ccccc3c21` showed a TGI above 100 µM.
Consider `O=C(/C=C/c1ccc2c(c1)OCO2)CC(=O)C(=O)c1c[nH]c2ccccc12`, for which the TGI is above 100 µM.
Same read-out and setting: next, `O=C(Nc1nccs1)c1c(O)nc2sccn2c1=O`: above 10 µM; `O=c1[nH]c(=O)n(C2OC(CO)C(O)C2O)c2nc(-c3ccc(-c4ccccc4)cc3)cnc12` (configuration not stated): above 100 µM.
As to `O=C1NCCN1/N=C/c1c(Cl)n(-c2ccccc2)c2ccccc12`, the TGI was above 100 µM.
On to `N=C(N)SCc1ccc2c(c1)Sc1ccccc1O2`, for which the TGI worked out at 25.3 µM.
Consider `CO[C@H]1/C=C(/C)CCC[C@H](C)[C@H](O)[C@@H](C)C(=O)C(C)(C)[C@@H](O)CC(=O)O[C@@H]1/C(C)=C/c1csc(C)n1`, for which the GI50 was 0.0436 µM and the TGI is above 100 µM.
As to `CCC1(CC)C(=O)NN(C(=O)c2ccccc2)C1=O`, the TGI was above 100 µM.
On the same count and under the same terms, the figure for `CC(=O)Nc1nc(C#N)[nH]c1C#N` is above 100 µM; for `CS(=O)c1ncc2c(n1)-c1ccccc1OC2` (configuration not stated) it is above 100 µM.
Same read-out and setting: the figure for `CN(C)c1ccc(C(=N/N=C2\C(=O)Nc3ccccc32)c2ccc(N(C)C)cc2)cc1` is above 54 µM; for `CCCC(=O)OC1CC(n2cc(F)c(=O)[nH]c2=O)OC1COP(=O)(OCC(Cl)(Cl)Cl)OCC(Cl)(Cl)Cl` (configuration not stated) it is above 100 µM.
The same measure, in the same setting: next, `CC1=C[C@@H]2Cc3nc4cc(Cl)ccc4c(N)c3[C@H](C1)C2`: 17.3 µM; `O=[N+]([O-])C(/C=C(\Cl)n1nnc2ccccc21)=C(/Cl)n1nnc2ccccc21`: above 100 µM; `CSC(=S)N(C)C`: above 100 µM.
`COc1ccc2c(C)cc(=O)oc2c1OC`: the TGI was above 100 µM.
Still for that read-out and setting: the figure for `CN(C)c1ccc(S(=O)Nc2ccccc2)cc1` (configuration not stated) is above 100 µM.
In turn, `C=CCSc1nnc2cc(CN3CCCC3)c(-c3ccc(Cl)cc3)nn12` showed a TGI of 41.5 µM.
On the same count and under the same terms, next, `Cc1cn(C2CC(O)C(CO)O2)c(=O)[nH]c1=O` (configuration not stated): above 5000 µM; `CSC(=S)N/N=C(\C)c1ccc(S(=O)(=O)N(C)c2ccccc2)cc1`: above 100 µM.
The same measure, in the same setting: the figure for `Cc1nc(N)c(N2CCN([N+](=O)[O-])CC2)c(=O)[nH]1` is above 100 µM; for `N#CC12C(=O)N=C(N)C1(C#N)C(c1ccco1)NC1=C2CCCC1` (configuration not stated) it is above 100 µM.

The subject of another assay is K-562 leukemia. Kind of assay: inhibition of tumour cell growth, NCI panel, 48 h.
The compound `CC1(C)CCCC2OC2CCC(C)(C)C1=O` (configuration not stated) registered a TGI above 100 µM.
`O=C1NCC2(CCN(CCCC3(c4ccc(F)cc4)OCCO3)CC2)N1c1ccccc1`: the TGI is above 100 µM.
On the same count and under the same terms, the figure for `COc1ccc2c(c1)/C(=C\c1c(Cl)nc3sc(C)cn13)C(=O)N2` is 9.56 µM.
Still for that read-out and setting: next, `O=C1c2ccccc2-c2c1c(-c1ccc(F)cc1)nc1ccc3ccccc3c21`: above 100 µM; `O=C(/C=C/c1ccc2c(c1)OCO2)CC(=O)C(=O)c1c[nH]c2ccccc12`: 84.6 µM; `O=c1[nH]c(=O)n(C2OC(CO)C(O)C2O)c2nc(-c3ccc(-c4ccccc4)cc3)cnc12` (configuration not stated): above 100 µM.
Still for that read-out and setting: the figure for `O=C1NCCN1/N=C/c1c(Cl)n(-c2ccccc2)c2ccccc12` is 68.1 µM; for `N=C(N)SCc1ccc2c(c1)Sc1ccccc1O2` it is above 100 µM.
On to `CO[C@H]1/C=C(/C)CCC[C@H](C)[C@H](O)[C@@H](C)C(=O)C(C)(C)[C@@H](O)CC(=O)O[C@@H]1/C(C)=C/c1csc(C)n1`, for which the GI50 is below 0.0173 µM and the TGI was above 100 µM.
Consider `CCC1(CC)C(=O)NN(C(=O)c2ccccc2)C1=O`, for which the TGI was above 100 µM.
Regarding `CC(=O)Nc1nc(C#N)[nH]c1C#N`, the TGI is above 100 µM.
Still for that read-out and setting: the figure for `CS(=O)c1ncc2c(n1)-c1ccccc1OC2` (configuration not stated) is above 100 µM; for `CN(C)c1ccc(C(=N/N=C2\C(=O)Nc3ccccc32)c2ccc(N(C)C)cc2)cc1` it is 39.6 µM; for `CC1=C[C@@H]2Cc3nc4cc(Cl)ccc4c(N)c3[C@H](C1)C2` it is 14.3 µM.
On to `O=[N+]([O-])C(/C=C(\Cl)n1nnc2ccccc21)=C(/Cl)n1nnc2ccccc21`, for which the TGI is above 100 µM.
`CSC(=S)N(C)C`: the TGI is above 100 µM.
On the same count and under the same terms, the figure for `COc1ccc2c(C)cc(=O)oc2c1OC` is above 100 µM; for `CN(C)c1ccc(S(=O)Nc2ccccc2)cc1` (configuration not stated) it is above 100 µM.
`C=CCSc1nnc2cc(CN3CCCC3)c(-c3ccc(Cl)cc3)nn12` displayed a TGI above 100 µM.
`Cc1cn(C2CC(O)C(CO)O2)c(=O)[nH]c1=O` (configuration not stated) had a TGI above 5000 µM.
The compound `CSC(=S)N/N=C(\C)c1ccc(S(=O)(=O)N(C)c2ccccc2)cc1` came in with a TGI above 100 µM.
Still for that read-out and setting: the figure for `CCNC(=O)Cc1nc2c(N)ncnc2n1C1OC(CO)C(O)C1O` (configuration not stated) is above 100 µM.
Still for that read-out and setting: the figure for `Cc1nc(N)c(N2CCN([N+](=O)[O-])CC2)c(=O)[nH]1` is above 100 µM.
On the same count and under the same terms, the figure for `CCN(CC)CCN(C(=Nc1ccccc1)N1CCOCC1)c1ccccc1` is above 100 µM.
